Entries after “also recorded” stand apart in the source; their conditions may differ.
Experiments:
SK-UT-1 cells = assay: Flow cytometry DNA cell cycle analysis; assay type: cell-based, human; settings: 48 h treatment
[1] = test system: POMC (Rb deficient) tumours in POMC-Cre/POMC-Luc;Rb-flox/flox compound mutant mice; settings: doxorubicin 5 mg/kg intravenously once a week for four weeks; in the combination, roscovitine 500 mg/kg orally twice daily for two days before each doxorubicin
Text: A conditional mouse model for retinoblastoma-dependent sporadic cancer was generated (Vooijs et al; Cancer Res 2002 Mar 15; 62(6): 1862-7; 2002) which permits non-invasive monitoring of pituitary tumour development in live animals via in vivo bioluminescence imaging of luciferase expression. This mouse model permits the longitudinal monitoring of tumour onset, progression and response to therapeutic agents that specifically target the retinoblastoma pathway. By way of summary, a retinoblastoma conditional KO line was crossed with a POMC-Cre/POMC-Luciferase transgenic line to generate POMC-Cre/POMC-Luc;Rb-flox/flox compound mutant mice. These mice develop POMC (Rb deficient) tumours (Vooijs et al, ibid) and as illustrated in FIG. 3.
In this study, doxorubicin was administered once a week for four weeks (5 mg/kg; intravenously).

[2] = test system: osteosarcoma line SaOS-2 (pRb-deficient); settings: pRb-deficient SaOS-2, in combination with doxorubicin; not seen in SaOS-2 transfected with Rb; cited from earlier work

SMILES	% of total, G1 (SK-UT-1 cells) [%]	% of total, G2M (SK-UT-1 cells) [%]	% of total, Go (SK-UT-1 cells) [%]	% of total, S (SK-UT-1 cells) [%]	tumour response (bioluminescence) [1]	sensitisation to the cytotoxic effects of doxorubicin [2]
COc1cccc2c1C(=O)c1c(O)c3c(c(O)c1C2=O)C[C@@](O)(C(=O)CO)C[C@@H]3O[C@H]1C[C@H](N)[C@H](O)[C@H](C)O1 [Doxo]	9	43	22	18	delay tumorigenesis; also recorded: temporarily halts tumour progression	–
CC[C@H](CO)Nc1nc(NCc2ccccc2)c2ncn(C(C)C)c2n1 [Roscovitine, 6-benzylamino-2-[(R)-1-ethyl-2-hydroxyethylamino]-9-isopropylpurine]	36	19	23	16	–	–
CN1CC[C@H](c2c(O)cc(O)c3c(=O)cc(-c4ccccc4Cl)oc23)[C@H](O)C1 [flavopiridol]	–	–	–	–	–	significantly sensitised

— US20050222054A1, “Combination comprising a CDK inhibitor and doxorubicin” (Cyclacel Limited, priority 2002, published 2005)
